The record followed here is PMC10782225 (The FASEB Journal, 2023).

In one assay the target is T1, human α7β2‐nAChR (Homo sapiens, UniProt P17787+P36544).
T1 construct: expressed in transfected cells; host or cells: Xenopus laevis oocytes, cRNA injection
The experiment in a line: cell-based. As to conditions: SEM.

For another assay, the target named is T2, human α7‐only‐nAChR (Homo sapiens, UniProt P36544).
T2 construct: expressed in transfected cells; host or cells: Xenopus laevis oocytes, cRNA injection
T2 sequence (P36544 23-502 limits assumed): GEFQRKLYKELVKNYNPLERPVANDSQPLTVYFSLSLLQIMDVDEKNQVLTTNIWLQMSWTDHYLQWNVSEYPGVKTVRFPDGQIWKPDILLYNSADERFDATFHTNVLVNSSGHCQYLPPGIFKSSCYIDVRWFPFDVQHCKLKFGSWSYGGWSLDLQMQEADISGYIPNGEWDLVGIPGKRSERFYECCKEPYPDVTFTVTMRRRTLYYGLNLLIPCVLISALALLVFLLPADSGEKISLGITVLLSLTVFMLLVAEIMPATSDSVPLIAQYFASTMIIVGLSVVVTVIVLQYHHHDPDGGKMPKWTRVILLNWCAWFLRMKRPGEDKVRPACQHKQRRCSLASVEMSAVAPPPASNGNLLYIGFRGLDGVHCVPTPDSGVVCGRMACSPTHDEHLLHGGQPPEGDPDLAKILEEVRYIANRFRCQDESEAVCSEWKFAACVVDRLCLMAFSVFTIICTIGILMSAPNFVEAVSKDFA
The experiment in a line: cell-based. The note with it: SEM.

T1 sequence (P36544 23-502 limits assumed): as above
T1 sequence (P17787 26-502 limits assumed): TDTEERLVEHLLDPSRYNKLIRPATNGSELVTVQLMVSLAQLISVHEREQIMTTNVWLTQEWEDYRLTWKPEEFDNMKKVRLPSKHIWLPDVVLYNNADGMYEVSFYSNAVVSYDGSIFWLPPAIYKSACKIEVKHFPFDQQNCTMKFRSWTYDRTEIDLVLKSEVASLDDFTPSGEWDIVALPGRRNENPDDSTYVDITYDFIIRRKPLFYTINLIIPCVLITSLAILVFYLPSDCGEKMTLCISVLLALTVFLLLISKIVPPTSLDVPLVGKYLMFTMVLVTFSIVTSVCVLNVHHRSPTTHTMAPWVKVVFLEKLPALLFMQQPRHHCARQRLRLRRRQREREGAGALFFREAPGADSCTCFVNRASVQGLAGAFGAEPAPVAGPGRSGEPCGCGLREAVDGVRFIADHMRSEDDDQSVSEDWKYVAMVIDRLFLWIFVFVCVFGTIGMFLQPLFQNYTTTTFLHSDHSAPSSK

On to `CC(C)C[C@@H]1NC(=O)[C@H](Cc2ccccc2)NC(=O)[C@@H]2CSSC[C@H](NC(=O)CN)C(=O)N[C@@H](CSSC[C@@H](C(N)=O)NC(=O)[C@H](Cc3ccc(O)cc3)NC(=O)[C@H](CC(=O)O)NC(=O)[C@@H]3CCCN3C(=O)[C@H](CC(N)=O)NC(=O)[C@H](CC(N)=O)NC1=O)C(=O)N[C@@H](CO)C(=O)N[C@@H](Cc1c[nH]cn1)C(=O)N1CCC[C@H]1C(=O)N1CCC[C@H]1C(=O)N2` [α‐CtxPnIC, α‐conotoxin PnIC], for which the Kd on human α7β2‐nAChR (K d α7β2) is 3.3 ± 0.6 nM; on human α7‐only‐nAChR it was 1.9 ± 0.4 nM. Besides, the koff is 0.000119 s⁻¹ at human α7β2‐nAChR (read-out: k off α7β2) and 0.000122 s⁻¹ on human α7‐only‐nAChR (read-out: k off α7‐only). The kon at human α7β2‐nAChR (read-out: k on α7β2) is 37200 M⁻¹ s⁻¹; at human α7‐only‐nAChR (read-out: k on α7‐only), 68700 M⁻¹ s⁻¹.

Usually Kd stands for the concentration at which binding is half-saturated. A low value points to a tighter complex.
